Data set [1] relates to 4.1 kb renin gene promoter (Ren-1c), As4.1-hVDR cells. Description: Renin gene promoter luciferase reporter assay in As4.1-hVDR cells. The class given is cell-based, mouse. Conditions: pGL-4.1 kb-Luc transfected As4.1-hVDR cells, 10^−8 M. The source says: As4.1-hVDR cells were transfected with pGL-4.1 kb-Luc, and treated with ethanol (E), 10^−8 M of 1,25(OH)2D3 (VD3) and different analogues as indicated.
A. Expression of hVDR mRNA in stable As4.1 clones. P, parental As4.1 cells; #57, As4.1 clone 57 stably transfected with pcDNA-hVDR; V, As4.1 clone stably transfected with the empty vector pcDNA3.1. B. Renin mRNA expression in As4.1 clone V (Vector) and #57 treated with ethanol (E) or different doses of 1,25(OH)2D3 as indicated. c. As4.1-hVDR cells (clone #57) were transfected with pGL3-Control, pGL-4.1 kb or pGL-117 bp luciferase reporter plasmid and then treated with ethanol (closed bar) or 10^−8 M of 1,25(OH)2D3 (open bar). Luciferase activity was determined 48 hr after transfection. Similar results were obtained in other stable clones.
Renin gene promoter analysis. Plasmid pR1C-4.1 CAT that contains 4.1 kb 5′-flanking sequence of mouse Ren-1^c gene (Petrovic et al. 1996) was provided by Dr. K. W. Gross (Roswell Park Cancer Institute, Buffalo, N.Y.). To generate pGL-117 bp reporter plasmid, the 123 bp renin minimal promoter fragment (+6 to −117) was released from pR1C-4.1 CAT with XbaI and BamHI and inserted into the HindIII site of pGL3-basic vector (Promega, Madison, Wis.). To generate pGL-4.1 kb reporter plasmid, the BamHI fragment (−4.1 kb to −118 bp) from pRI C-4.1 CAT was inserted into the BglII site of pGL-117 bp. To analyze the activity of renin gene promoter, As4.1-hVDR cells were transfected with the reporter plasmids by electroporation according to Shi et al. (2001) using a Bio-Rad Gene Pulser (Bio-Rad, Hercules, Calif.). pCMV-β-gal plasmid was co-transfected as an internal control. pGL3-control plasmid (Promega) was used as the positive control. The transfected cells were treated with ethanol or 10^−8 M of 1,25(OH)2D3 in Opti-MEM medium (Invitrogen) containing 2% charcoal-treated FBS four hr after electroporation, and luciferase activity was determined at 48 hr after initial transfection, using the Luciferase Assay System (Promega). Luciferase activity was normalized to β-gal activity obtained from the same electroporation, and presented as fold induction based on the basal activity of pGL3-basic empty vector determined in the same experiment.
A general note: In a reporter assay the amount or activity of a reporter protein is the signal.

The subject of data set [2] is renin mRNA, As4.1-hVDR cells. Description: Renin mRNA by Northern blot in As4.1-hVDR cells (vitamin D analog screening). The class given is cell-based, mouse. Details: Relative inhibitory activity (renin suppressive activity of Gemini analogues): key to the marks not given beside the values. Conditions: As4.1-hVDR cells, 24 hours at 10-8, 10^-9 and 10^-10 M; renin mRNA by Northern blot; relative to 1,25-dihydroxyvitamin D3. The method, then: Vitamin D analogues listed in TABLE 1 were used to treat As4.1-hVDR cells at 10^−10, 10^−9 and 10^−8 M. Renin mRNA was analyzed by Northern blot. 36B4 is a control mRNA and represents a mouse acidic ribosomal phosphoprotein.
FIG. 4 is an histogram of evaluation of Gemini analogues by Northern blot analysis. The 11 Gemini compounds listed in TABLE 2 (indicated) were used to treat As4.1 hVDR cells at 10^−10, 10^−9, and 10^−8 M for 24 hours. Renin mRNA was quantitated by Northern blots. The quantitative data obtained at 10^−10 and 10^−9 M are shown in A and B. The # of each compound corresponds to the number shown in TABLE 2. E, ethanol-treated control, VD, 1,25(OH)2D3.
(§1) RNA isolation and northern blot. The kidney and liver were dissected and immediately placed into the Trizol Reagent (Invitrogen, Grand Island, N.Y.) for total RNA isolation according to the manufacturer's instruction. To determine renin or angiotensinogen mRNA expression, total RNA (20 μg/lane) was separated on a 1.2% agarose gel containing 0.6 M formaldehyde, transferred onto a Nylon membrane (MSI, Westborough, Mass.) and crosslinked in a UV crosslinker (Bio-Rad, Hercules, Calif.). Hybridization was performed as described by Li et al. (2001). Mouse renin and angiotensinogen cDNA probes were labeled with ^32P-dATP (ICN, Costa Mesa, Calif.) using the Prime-a-gene Labeling System (Promega, Madison, Wis.). After hybridization and washing, membranes were exposed to X-ray films at −80° C. for autoradiography. The relative amount of mRNA was quantitated using a Phospholmager (Molecular Dynamics, Sunnyvale, Calif.) and normalized with 36B4 mRNA.
As4.1 cell culture and transfection. As4.1 cells (ATCC, Manassas, Va.) were cultured in DMEM supplemented with 10% FBS at 37° C. and 5% CO2. For transient transfection, the cells were grown in 10-cm dishes to 50% confluence and transfected with pcDNA3.1, pcDNA-hVDR or pcDNA-PTH/PTHrPR plasmid (10 μg DNA/dish) by the standard calcium phosphate method. Twenty-four hr after transfection, the cells were treated for 24 hr with 5×10^−8 M of 1,25(OH)2D3 or ethanol in serum-free media, or with different doses of bovine PTH(1-34) as indicated. Total RNA was isolated and analyzed for renin mRNA expression by northern blot. For stable transfection, As4.1 cells were transfected with pcDNA3.1 or pcDNA-hVDR plasmid by the use of Superfect reagent (Qiagen, Valencia, Calif.) and selected with 350 μg/ml of G418 for two weeks. Individual colonies were picked, expanded and selected for VDR expression. The As4.1-hVDR stable clones were treated with different doses of 1,25(OH)2D3 for 24 hr in serum-free media, and total RNA were analyzed by northern blot to examine renin expression.

Data set [3] can be described thus: Blood ionized calcium and survival of treated mice. The format is in vivo, mouse. The source says: Two-month old wildtype mice were fed the normal diet supplemented with 2.5% strontium chloride for 7 weeks before sacrifice. A. Northern blot analysis of renin mRNA expression in the kidney from non-treated and strontium-treated wildtype mice. Each lane represents an individual animal. B. Quantitative results of the northern analysis. C. Blood ionized calcium concentration determined at the end of the treatment (n=5 in each group). In both b and c, NT, non-treated; STR, strontium-treated, *, P<0.01 vs. NT value.
(A) Blood ionized calcium levels. Normal mice (n=5) were treated with vehicle (control), 1,25(OH)2D3 (VD3) or compound #9 at a daily dose of 1.5 μg/kg body weight for one week. […] (B) Renin mRNA levels in the kidneys of treated mice, as determined by quantitative Northern blots. *, P<0.01.
Measurement of blood and urine parameters. The concentration of blood ionized calcium was determined using a Ciba/Coming 634 Ca^++/pH analyzer (Chiron Diagnostics, East Walpole, Mass.) from 50 μl of whole blood obtained from tail snipping. Blood glucose concentrations were determined by using One Touch Sure Step test strips (Life Scan, Milpitas, Calif.). Serum intact parathyroid hormone (iPTH) was determined using a commercial ELISA kit (Immutopics, San Clemente, Calif.). The concentration of serum and urinary Na^+, K^+, and creatinine was determined by a Beckman Coulter CX5 Autoanalyzer as described by Li et al. (2001).

The test system of another data set is renin mRNA in the kidney. Put plainly: Renin mRNA in the kidney of treated mice (Northern blot). The format is in vivo, mouse. How it is done:
A. […] The 2 doses were given in two consecutive days at 9 am. The 5 doses were given in three consecutive days at 9 am and 7 pm for the first two days, and at 9 am on the third day. Total renal RNA was isolated 6 hr after the last injection. Renin, calbindin-D9k (CaBP-D9k) and 36B4 mRNA levels were determined by Northern blot analysis. B. Quantitation of renin mRNA levels.
(A) Blood ionized calcium levels.
As a control for vitamin D action, Calbindin-D9k stimulation was measured. Quantitative data were presented below the Northern blot gels.
Total kidney RNAs were separated on agarose gels (20 μg/lane). Membranes were hybridized sequentially with 32P-labeled renin and 36B4 cDNA probes. The relative amount of renin mRNA was quantitated after being normalized with 36B4 mRNA levels. […] (B) Quantitative results-from Northern blots in (A).
Animals and treatment. […] VDR^−/− and Gcm2^−/− mice were generated through breeding of heterozygous mice and identified by PCR with tail genomic DNA as the template, and the wild-type littermates were used as controls. […] To increase the sodium load, mice were fed the normal rodent diet supplemented with 8% NaCl for 1, 3, 5 and 7 days. […] Wild-type mice were injected (i.p.) with vehicle or 30 pmole of 1,25(OH)2D3 dissolved in propylene glycol. Mice were sacrificed by exsanguination under anesthesia and the blood was collected into ice-cold tubes for serum isolation, or into ice-cold tubes containing 50 μl of EDTA (pH 8.0) and 100 U/ml aprotinin for plasma isolation. The determination of water and food intake, as well as urine collection, were carried out by using metabolic cages.
as §1, with “To determine renin or angiotensinogen mRNA expression, total RNA (20 μg/lane) was separated on a 1.2% agarose gel containing 0.6 M formaldehyde, transferred onto a Nylon membrane (MSI, Westborough, Mass.) and crosslinked in a UV crosslinker (Bio-Rad, Hercules, Calif.). Hybridization was performed as described by Li et al. (2001).” left out

The test system of the next data set is renin mRNA, As4.1 cells. Description: Renin mRNA by northern blot in As4.1 cells with or without transient transfection. The format is cell-based, mouse. Conditions: As4.1 cells, or As4.1 transfected with pcDNA-PTH/PTHrPR; different doses.
From the text: A. As4.1 cells were transiently transfected with (+) or without (−) pcDNA-hVDR plasmid containing the full-length human VDR cDNA and then. treated with 5×10^−8 M of 1,25(OH)2D3 (+) or ethanol (−) for 24 hrs. Total cellular RNA was isolated and analyzed by northern blot with renin and 36B4 cDNA probes. B. Quantitative results of northern blot analyses obtained from three independent experiments. C, ethanol-treated; VD, 1,25(OH)2D3-treated; T, transfected with pcDNA-hVDR and treated with ethanol; T/VD, transfected with pcDNA-hVDR and treated with 1,25(OH)2D3. *, P<0.001 vs. C, VD or T value. C. Renin mRNA expression in As4.1 cells (left panel), and in As4.1 cells transfected with pcDNA-PTH/PTHrPR containing the rat PTH/PTHrP receptor cDNA (right panel) and treated with bovine PTH (1-34) as indicated. −, untreated.
as §1
As4.1 cell culture and transfection. […] Total RNA was isolated and analyzed for renin mRNA expression by northern blot. […] The As4.1-hVDR stable clones were treated with different doses of 1,25(OH)2D3 for 24 hr in serum-free media, and total RNA were analyzed by northern blot to examine renin expression.

[4] abbreviates: normal mice, daily dose 1.5 μg/kg body weight for one week.
Where [5] appears, read: wildtype mice, normal diet with 2.5% strontium chloride for seven weeks.

As for `C=C1C(=CC=C2CCCC3(C)C2CCC3C(CCCC(C)(C)O)CCCC(C)(C)O)CC(O)CC1O` (centres unmarked) [#4, 1,25-dihydroxy-21(3-methyl-3-hydroxy-butyl)-cholecalciferol], the “Suppression of renin promoter activity (luciferase)” value in data set [1] is “super-potency”. Besides, the “Relative inhibitory activity (renin suppressive activity of Gemini analogues)” value in data set [2] is on record as “++”.
Turning to `CC(C)(O)CCCC(CCCC(C)(C)O)C1CCC2C(=CC=C3CC(O)CC(O)C3)CCCC21C` (centres unmarked) [#9, 1,25-dihydroxy-21(3-methyl-3-hydroxy-butyl)-19-nor-cholecalciferol], the Blood calcium level result in data set [3] (setting [4]) is listed as “minimal increase”. In data set [1], the “Suppression of renin promoter activity (luciferase)” value is given as “super-potency”. In addition, the “Renin mRNA expression in the kidneys” value with renin mRNA in the kidney (setting [4]) is given as “reduced”. Also, the “Reduction in renin mRNA levels in the kidneys” value in the data set on renin mRNA in the kidney (normal mice, daily dose 5 μg/kg body weight for one week) is listed as 54%; in the data set on renin mRNA in the kidney (normal mice, daily dose 12 μg/kg body weight for one week), 76%.
As to “PTH(1-34): bovine PTH(1-34), parathyroid hormone fragment used to treat As4.1 cells (AVSEIQFMHNLGKHLSSMERVEWLRKKLQDVHNF; UniProt P01268 32-65, looked up, fragment)”, the “Renin expression in PTH-treated As4.1 cells” value in the data set on renin mRNA, As4.1 cells is “No increase in renin expression”.
`C=C1C(=CC=C2CCCC3(C)C2CCC3C(CCCC(C)(C)O)CCC(O)C(C)(C)O)CC(O)CC1O` [#18, 1,25-dihydroxy-21(2R,3-hydroxy-3-methylbutyl)-20S-cholecalciferol]: the “Relative inhibitory activity (renin suppressive activity of Gemini analogues)” value in data set [2] is given as “++”.
As to `[Cl-].[Cl-].[Sr+2]` [strontium, strontium chloride], the Blood ionized calcium entry in data set [3] (setting [5]) is “hypocalcemic”. In the data set with renin mRNA in the kidney (setting [5]), the “Renin mRNA expression in the kidney” value is listed as “significant increase”.

Source of the values: US20050113348A1, “Vitamin D and vitamin D analogs or derivatives as new anti-hypertensive agents” (priority 2003, published 2005).
